Laboratory results published in US20050059726A1, “Pyrrolidine-2-ones as factor xa inhibitors” (priority 2001, published 2005).

Biological target: human Factor Xa (Homo sapiens, UniProt P00742)
Assay: In vitro assay for inhibition of Factor Xa (1), chromogenic assay
Assay type: biochemical
Conditions: substrate N-α-benzyloxycarbonyl-D-Arg-Gly-Arg-p-nitroanilide 200 μM, Ki calculated from IC50
Procedure: • 1. Klimkowski, Valentine Joseph; Kyle, Jeffrey Alan; Masters, John Joseph; Wiley, Michael Robert. PCT Int. Appl. (2000), WO 0039092. In Vitro Assay for Inhibition of Factor Xa (1)
Compounds were diluted from a 10 mM stock solution in dimethylsulfoxide at appropriate concentrations. Assay was performed at room temperature using buffer consisting of: 50 mM Tris-HCl, 150 mM NaCl, 5 mM CaCl2, pH 7.4. containing human Factor Xa (final conc. of 0.0015 U,ml^−1). Compound and enzyme were preincubated for 15 min prior to addition of the substrate (final conc. of 200 μM). The reaction was stopped after 30 min with the addition of soybean trypsin inhibitor or H-D-PHE-PRO-ARG-Chloromethylketone. BioTek EL340 or Tecan Spectrafluoro Plus plate readers were used to monitor the absorbance at 405 nm. To obtain IC50 values the data were analysed using ActivityBase® and XLfit®.
Calculation of Ki values:
Ki=IC50/(1+[Substrate]/Km)
The Ki value for the above assay can be obtained by dividing the IC50 value by 1.6.

Chain of human Factor Xa (P00742 235-488 limits assumed): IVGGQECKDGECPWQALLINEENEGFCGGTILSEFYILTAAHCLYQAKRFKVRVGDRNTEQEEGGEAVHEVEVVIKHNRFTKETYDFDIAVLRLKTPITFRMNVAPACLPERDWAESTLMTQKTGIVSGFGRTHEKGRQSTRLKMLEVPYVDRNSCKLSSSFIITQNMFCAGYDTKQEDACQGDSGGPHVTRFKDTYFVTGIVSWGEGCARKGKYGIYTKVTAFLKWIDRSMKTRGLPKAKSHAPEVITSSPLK
Chain of human Factor Xa (P00742 41-179 partner limits assumed): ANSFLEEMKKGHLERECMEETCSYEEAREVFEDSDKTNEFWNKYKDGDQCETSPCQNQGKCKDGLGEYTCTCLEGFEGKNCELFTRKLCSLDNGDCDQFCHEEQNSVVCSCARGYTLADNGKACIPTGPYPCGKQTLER

Ki | Structure (SMILES)
< 10 nM | O=C1[C@@H](NS(=O)(=O)c2ccc3cc(Cl)ccc3c2)CCN1c1ccc(-c2ccncc2Cl)cc1F [Example 83, 6-chloro-N-{(3S)-1-[4-(3-Chloropyridin-4-yl)-2-fluorophenyl]-2-oxopyrrolidin-3-yl}naphthalene-2-sulfonamide]
< 1000 nM | O=C1[C@@H](NS(=O)(=O)/C=C/c2ccc(Cl)s2)CCN1c1ccc(I)cn1 [Example 90, (E)-2-(5-Chlorothien-2-yl)-N-[(3S)-1-(5-iodopyridin-2yl)oxopyrrolidin-3-yl]ethenesulfonamide]
< 200 nM | CC(C)(C)c1ccc(N2CC[C@H](NS(=O)(=O)c3ccc4cc(Cl)ccc4c3)C2=O)cc1 [Example 125, N-[(3S)-1-(4-tert-butylphenyl)-2-oxopyrrolidinyl]-6-chloro-2-naphthalenesulfonamide]
< 20 nM | CN(C)c1ccc(N2CC[C@H](NS(=O)(=O)c3ccc4cc(Cl)ccc4c3)C2=O)cc1 [Example 2, 6-Chloro-N-{(3S)-1-[4-(dimethylamino)phenyl]-2-oxopyrrolidin-3-yl}naphthalene-2-sulfonamide]
